Measured values from BindingDB's records for doi:10.1021/jm00100a015 (Centre De Neurochimie Du Cnrs, 1992).

Molecular target: GABA-A receptor (Rattus norvegicus)
Assay: Affinity for gamma-aminobutyric-acid A receptor measured by its ability to displace [3H]gabazine antagonist from rat brain preparations.

SMILES | IC50
Cc1cc(-c2ccccc2)nn(CCCC(=O)O)c1=N | 800 nM
N=c1ccc(-c2ccsc2)nn1Cc1cc(=O)[nH]o1 | 88 nM
